Measurements reported in the METLIN SMRT retention time set (Domingo-Almenara et al. 2019).

Test: gradient 5% acetonitrile 3 min, to 50% in 2 min, to 85% in 15 min, held 3 min, 100 µL/min
Conditions: column: Zorbax Extend-C18 2.1 x 50 mm; eluents: water / acetonitrile, 0.1% formic acid
How it was run: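 Retention times come from adduct peaks that were picked computationally and then checked by hand. The standards, pure and pooled in mixtures of ~100 molecules, were run on a Zorbax Extend-C18 column (2.1 × 50 mm, 1.8 μm) at 100 μL/min with water and acetonitrile, each with 0.1% formic acid. Detection was by quadrupole time-of-flight mass spectrometry in positive and negative ionization mode, with a dead volume of 40 μL and a dwell volume of 900 μL.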

SMILES | RP-LC retention time [s]
CN(CC1CCOC1)C(=O)Nc1ccc(C(F)(F)F)cc1 (stereo not given) | 783
O=C(NC1CC1)C1CCCN(S(=O)(=O)c2c[nH]c(C(=O)N3CCCC3)c2)C1 (stereo not given) | 627
COc1ccc(-c2nc(N3CCCC3)c3ccccc3n2)cc1 | 742
CCOC(=O)C1CCCN(c2ccc(-n3nc(C)cc3C)nn2)C1 (stereo not given) | 680
O=C1NCCc2ccc(NC(=O)C3CC(=O)N(c4ccc(Cl)cc4)C3)cc21 (stereo not given) | 661
O=C(Nc1ccc(Cl)cc1)c1cccnc1-n1cc(-c2ccncc2)cn1 | 653
CCC(=O)N1CCCC(c2nc(CNC(=O)C(C)C)cs2)C1 (stereo not given) | 632
CCCN1C(=O)COc2ccc(-c3noc(-c4cccc5[nH]ccc45)n3)cc21 | 1070
CCn1cc(-c2ccc(C)cc2)cc1C(=O)NC(C)c1cccnc1 (stereo not given) | 736
Cc1nc(-c2cc(S(=O)(=O)Nc3ccc(Br)cc3C)c(C)s2)cs1 | 1100
COc1ccccc1-c1nc(C2CC(=O)N(c3ccc(F)cc3)C2)no1 (stereo not given) | 926
CCOc1ccc(-n2ccn3cc(-c4ccc(C)cc4C)nc3c2=O)cc1 | 942
COc1ccc(C2CC(=O)N(c3ccc(OC)c(OC)c3)C(=O)C2)cc1OC | 910
O=C1NCCCCCN(C(=O)c2ccoc2)[C@@H]2C[C@@H](C(=O)N3CCc4ccccc4C3)C[C@H]12 | 753
COc1ccc(C2CC(=O)c3cnc(Nc4nc(C)c5cc(C)c(C)cc5n4)nc3C2)cc1 (stereo not given) | 775
Cc1cccn2c(Nc3ccc4c(c3)OCCO4)c(-c3ccc(N(C)C)cc3)nc12 | 735
COc1ccccc1-c1nnc(-c2cc(S(=O)(=O)N3CCCCCC3)ccc2Cl)o1 | 1130
CCS(=O)(=O)c1nc2ccc(NS(=O)(=O)c3ccc4c(c3)oc(=O)n4C)cc2s1 | 805
Cc1ccc(-c2noc(CN3N=NC4C(=O)N(c5ccc(C)cc5)C(=O)C43)n2)cc1 (stereo not given) | 1020

SMILES | RP-LC retention time [s]
COc1cc(NC(=O)Cn2nc3c4cc(C)ccc4ncn3c2=O)cc(OC)c1 | 682
Cc1ccc(Cl)cc1NC(=O)N(C)CCO | 737
Cc1ccc(-c2csc(-c3cc4c([nH]c3=O)CC(C)(C)CC4=O)n2)cc1 | 994
O=C(COc1ccc(Cl)cc1)Nc1nc(-c2ccc(S(=O)(=O)N3CCOCC3)cc2)cs1 | 1040
COC(=O)c1cc2c(=O)n(-c3ccc(Cl)cc3Cl)ccc2nc1C | 928
COCc1nncn1C1CN(C(=O)Nc2ccc(Cl)cc2C(F)(F)F)C1 | 963
CCc1noc(NC(C)=O)c1-c1ccc(OC)c(S(=O)(=O)NCc2ccccc2)c1 | 766
O=C(CSc1ccc(-n2cccn2)nn1)NCc1cccs1 | 681
Clc1ccc(-c2nc(NCc3cccs3)c3ccccc3n2)cc1 | 842
CN(C)C[C@@H]1CN(S(C)(=O)=O)C[C@H]1NC(=O)COc1ccc(Cl)cc1 | 629
CO[C@H]1C(=O)N(C(C)C)[C@H]1C1CCN(C(=O)Cn2ccnc2)CC1 | 562
CCOc1ccccc1NC(=O)CN1C(=O)C(O)(c2cccc(C)c2)c2ccccc21 (stereo not given) | 640
Cc1cc(C)nc(Nc2nc(CC(=O)N3CCN(C4CCCCC4)CC3)cs2)n1 | 558
Cc1nc(-c2noc(-c3ccc(F)cc3)n2)cn1CC(=O)Nc1ccc(Cl)cc1 | 922
O=C(CSc1nc(-c2cccc([N+](=O)[O-])c2)cs1)NCc1ccccc1 | 890
Cc1sc2cc(C(=O)NCCN(C)C)[nH]c2c1CN1CCCCC1 | 536
CN1CC[C@@H]2CN3CCc4cccc(c43)[C@@H]2C1 | 644
Cn1c(C(=O)NCc2ccccn2)cc2c(=O)oc3ccccc3c21 | 607
COc1ccc(C2(C(N)=O)CC2)cc1 | 682

The remaining lines, values ahead:

RP-LC retention time [s] | SMILES
629 | O=C(NCc1ccco1)C1CCN(c2cnc3nccnc3c2)CC1
806 | CN(c1cccc(NC(=O)C2CCN(S(=O)(=O)Cc3ccccc3)CC2)c1)S(C)(=O)=O
814 | COc1cccc(Cn2nc3c(S(=O)(=O)N4CCCC4)cccn3c2=O)c1
835 | CC1=C(c2ccc(F)cc2)S(=O)(=O)N=C1N1CCCN(C(=O)c2cccc(F)c2)CC1
658 | Cc1ncn(CC(=O)Nc2cc(F)ccc2F)c(=O)c1C
1200 | Cc1ccc(-c2nnc(-c3ccccc3)o2)cc1S(=O)(=O)N1CCCCCC1
612 | CC1CCCCN1CCNC(=O)Cn1c(=O)c2cccn2c2ccc(F)cc21 (stereo not given)
612 | CC(CCNC(=O)C(C)n1c2ccccc2c2cnn(C)c(=O)c21)N1CCCC1 (stereo not given)
630 | O=C(NCc1ccncc1)C1CCCN(c2nc3ccsc3c(=O)n2Cc2ccc(F)cc2)C1 (stereo not given)
1110 | Cc1oc(C2CCC2)nc1C(=O)NCc1cccc(C(F)(F)F)c1
836 | Cc1nc(N2CCCC2)c2c(C(=O)Nc3ccc(C)c(F)c3)c(C)oc2n1
700 | CCCNC(=O)C1CCN(c2ccc(SCC(=O)Nc3cc(C)ccc3OC)nn2)CC1
725 | CC(C)c1ccc(C2C(C(=O)c3ccccc3)C(=O)C(=O)N2CCCN2CCOCC2)cc1 (stereo not given)
805 | Cc1ccc(-n2c(N3CCCC(C(=O)NCC4CC4)C3)nc3ccsc3c2=O)cc1 (stereo not given)
1030 | Cc1ccc(N2CN(CC(=O)Nc3cccc(Cl)c3)S(=O)(=O)c3cccnc32)cc1
1010 | CCCn1c(=O)c(N2CCN(C(=O)CC(C)C)CC2)nc2ccccc21
604 | Cn1c(CN2CCN(C(=O)c3ccc(C#N)cc3)CC2)nc2cc(C(=O)N3CCCC3)ccc21
672 | CCN1CCN(c2ccc(NC(=O)c3ccccc3Cl)cn2)C1=O
859 | COc1ccc(OC)c(NC(=O)Cn2c(=O)nc(N3CCC(C)CC3)c3ccccc32)c1
1070 | COCCn1cc2c3c(cccc31)CN(C(=O)Nc1cccc(Cl)c1C)CC2
737 | Cc1ccc2c(Nc3cccc(C(C)C)c3)c(C(=O)N3CCC(C)CC3)cnc2n1
760 | C[C@H]1CN(C(=O)Nc2ccc(F)cc2)C[C@@H]1c1nc(-c2cccnc2)no1
